Values quoted from earlier work as cited in patent US20250041489A1, “A Drug Coating Formulation for a Sirolimus Coated Balloon Catheter” (C. R. Bard, Inc., priority 2021, published 2025).

Conditions: compared to amorphous sirolimus

Half-life of sirolimus on the surface of a balloon: four weeks
Structure (SMILES): CO[C@H]1C[C@@H]2CC[C@@H](C)[C@@](O)(O2)C(=O)C(=O)N2CCCC[C@H]2C(=O)O[C@H]([C@H](C)C[C@@H]2CC[C@@H](O)[C@H](OC)C2)CC(=O)[C@H](C)/C=C(\C)[C@@H](O)[C@@H](OC)C(=O)[C@H](C)C[C@H](C)/C=C/C=C/C=C/1C [crystalline sirolimus, sirolimus]
